# How the values were obtained:
# [1] = Mean residence time in rat at 1 mg/kg, iv; assay type: ADME, organism-based; parameters: dose 1 mg/kg, route intravenous; conditions: in vivo
# [2] = Metabolic stability in rat hepatic microsomes assessed as compound turnover at 5 uM in absence of NADPH after 30 mins; assay type: ADME; conditions: liver microsomes, read-out: Activity
# Caco-2 [3] = assay: (§1) Apparent permeability from apical to basolateral side of the human Caco2 cells; assay type: ADME, cell-based
# [4] = Metabolic stability in rat hepatic microsomes assessed as compound turnover at 5 uM in presence of NADPH after 30 mins; assay type: ADME; conditions: liver microsomes, read-out: Activity
# [5] = Solubility in aqueous media at pH 7.4; assay type: physicochemical
# Caco-2 [6] = assay: (§2) Apparent permeability from basolateral to apical side of human Caco2 cells; assay type: ADME, cell-based
# [7] = AUC (0 to infinity) in rat at 10 mg/kg, po; assay type: ADME, organism-based; parameters: time infinity, dose 10 mg/kg, route oral; conditions: plasma
# [8] = Metabolic stability in human hepatic microsomes assessed as compound turnover at 5 uM in absence of NADPH after 30 mins; assay type: ADME; conditions: liver microsomes, read-out: Activity
# [9] = Metabolic stability in human hepatic microsomes assessed as compound turnover at 5 uM in presence of NADPH after 30 mins; assay type: ADME; conditions: liver microsomes, read-out: Activity
# [10] = molecular target: T1, Mitogen-activated protein kinase 14 (Homo sapiens, UniProt Q16539); assay: Inhibition of human p38alpha using biotinylated ATF2 substrate by FRET assay
# [11] = Oral bioavailability in rat at 10 mg/kg; assay type: ADME, organism-based; conditions: in vivo
# [12] = AUC (0 to infinity) in rat at 1 mg/kg, iv; assay type: ADME, organism-based; parameters: time infinity, dose 1 mg/kg, route intravenous; conditions: plasma
# [13] = molecular target: T1, Mitogen-activated protein kinase 14; assay: Inhibition of p38alpha in human whole blood assessed as reduction in TNF-alpha production by ELISA
# [14] = Terminal half life in rat at 1 mg/kg, iv; assay type: ADME, organism-based; parameters: dose 1 mg/kg, route intravenous; conditions: in vivo, read-out: beta t1/2 (converted)
# [15] = Cmax in rat at 10 mg/kg, po; assay type: ADME, organism-based; parameters: dose 10 mg/kg, route oral; conditions: in vivo
# [16] = Volume of distribution at steady state in rat at 1 mg/kg, iv; assay type: ADME, organism-based; parameters: dose 1 mg/kg, route intravenous; conditions: in vivo, read-out: Vdss
# Rattus norvegicus = species: Rattus norvegicus; assay: Hepatic blood flow in rat; assay type: ADME, organism-based, Liver
# [17] = Clearance in rat at 1 mg/kg, iv; assay type: ADME, organism-based; parameters: dose 1 mg/kg, route intravenous; conditions: in vivo
# [18] = Cmax in rat at 1 mg/kg, iv; assay type: ADME, organism-based; parameters: dose 1 mg/kg, route intravenous; conditions: in vivo
# [19] = Cytotoxicity against CHO cells at 200 uM; assay type: cell-based, Cricetulus griseus; conditions: chinese hamster, read-out: INH
# [20] = molecular target: RAF proto-oncogene serine/threonine-protein kinase (Homo sapiens, UniProt P04049); assay: Inhibition of human c-RAF
# CHO = assay: Cytotoxicity against CHO cells; assay type: cell-based; conditions: Cricetulus griseus
# [21] = as §1; assay type: ADME, cell-based; conditions: caco-2
# [22] = as §2; assay type: ADME, cell-based; conditions: caco-2
# T1 sequence (Q16539 whole entry): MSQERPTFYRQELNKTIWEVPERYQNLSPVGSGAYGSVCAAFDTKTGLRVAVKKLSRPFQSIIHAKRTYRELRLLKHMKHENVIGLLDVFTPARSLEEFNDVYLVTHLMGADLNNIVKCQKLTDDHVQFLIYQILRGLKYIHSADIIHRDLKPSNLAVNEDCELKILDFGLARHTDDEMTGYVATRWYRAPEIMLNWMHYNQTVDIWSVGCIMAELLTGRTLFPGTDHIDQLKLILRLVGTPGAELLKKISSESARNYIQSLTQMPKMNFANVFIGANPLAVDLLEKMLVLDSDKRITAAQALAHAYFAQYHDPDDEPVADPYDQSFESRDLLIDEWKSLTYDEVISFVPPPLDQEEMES
# Sequence of RAF proto-oncogene serine/threonine-protein kinase (P04049 whole entry): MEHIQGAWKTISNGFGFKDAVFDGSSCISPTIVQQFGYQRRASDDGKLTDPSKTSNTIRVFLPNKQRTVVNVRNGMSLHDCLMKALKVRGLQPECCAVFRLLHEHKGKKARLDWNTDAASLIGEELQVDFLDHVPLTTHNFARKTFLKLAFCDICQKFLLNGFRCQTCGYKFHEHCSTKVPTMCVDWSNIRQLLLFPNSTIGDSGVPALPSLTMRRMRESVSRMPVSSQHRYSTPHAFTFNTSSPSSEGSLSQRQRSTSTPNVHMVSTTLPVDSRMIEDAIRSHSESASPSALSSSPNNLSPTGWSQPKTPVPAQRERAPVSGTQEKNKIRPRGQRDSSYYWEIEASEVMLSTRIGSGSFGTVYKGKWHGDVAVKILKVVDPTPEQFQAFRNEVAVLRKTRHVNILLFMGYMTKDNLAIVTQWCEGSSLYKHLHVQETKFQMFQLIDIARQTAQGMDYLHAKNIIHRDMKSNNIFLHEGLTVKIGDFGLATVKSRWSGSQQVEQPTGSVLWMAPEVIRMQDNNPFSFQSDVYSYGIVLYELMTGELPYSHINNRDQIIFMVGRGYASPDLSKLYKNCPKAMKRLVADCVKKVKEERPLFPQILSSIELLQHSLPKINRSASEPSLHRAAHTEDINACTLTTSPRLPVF
Structure (SMILES),"metabolised at 0.5 h, 5 µM [2]",Papp (Caco-2 [3]),"metabolised at 0.5 h, 5 µM [4]",Papp (Caco-2 [6]),"metabolised at 0.5 h, 5 µM [8]","metabolised at 0.5 h, 5 µM [9]",IC50 [10],IC50 [13],further results
Cc1ccc(C(=O)NC2CC2)cc1-c1ccc2c(c1)NC(=O)C21CCCC1,< 5%,permeable,44%,permeable,,,,,MRT [1]: 2.1 h; solubility [5]: 3 µg/mL; AUC(0-inf) [7]: 2640 ng·h/mL
Cc1ccc(C(=O)NC2CC2)cc1-c1ccc2c(c1)NC(=O)C21CCCCC1,< 5%,permeable,47%,permeable,29%,57%,,,
Cc1ccc(C(=O)NC2CC2)cc1-c1ccc2c(c1)NC(=O)C2(CCO)CCO,,permeable,,permeable,,,4570 nM,,
Cc1ccc(C(=O)NC2CC2)cc1-c1ccc2c(c1)NC(=O)C21CCN(C)CC1,,permeable,13%,permeable,17%,15%,,9.6 nM,bioavailability [11]: 35%; AUC(0-inf) [12]: 226 ng·h/mL; MRT [1]: 4.3 h; half-life [14]: 5.1 h; Cmax [15]: 134 ng/mL; Vd [16]: 19.1 L/kg; QH (Rattus norvegicus): > 85%; clearance [17]: 73.3 mL/min/kg; Cmax [18]: 133 ng/mL; cytotoxicity at 200 µM [19]: 40%; AUC(0-inf) [7]: 786 ng·h/mL
Cc1c(F)cc(C(=O)NC2CC2)cc1-c1ccc2c(c1)NC(=O)C21CCN(S(C)(=O)=O)CC1,< 5%,permeable,18%,permeable,53%,36%,,20 nM,
Cc1ccc(C(=O)NC2CC2)cc1-c1ccc2c(c1)NC(=O)C21CCOCC1,< 5%,permeable,16%,permeable,40%,34%,1.65 nM,14 nM,bioavailability [11]: 40%; IC50 [20]: 120 nM; AUC(0-inf) [12]: 2770 ng·h/mL; MRT [1]: 2.2 h; half-life [14]: 2.7 h; Cmax [15]: 1310 ng/mL; Vd [16]: 0.8 L/kg; clearance [17]: 6.67 mL/min/kg; Cmax [18]: 1530 ng/mL; AUC(0-inf) [7]: 10400 ng·h/mL
Cc1ccc(C(=O)Nc2ccon2)cc1-c1ccc2c(c1)NC(=O)C21CCOCC1,< 5%,permeable,23%,permeable,72%,74%,0.09 nM,7 nM,
Cc1ccc(C(=O)NC2CC2)cc1-c1ccc2c(c1)NC(=O)C21CCSCC1,< 5%,permeable,97%,permeable,41%,72%,0.08 nM,16 nM,IC50 (CHO): 16000 nM
Cc1ccc(C(=O)NC2CC2)cc1-c1ccc2c(c1)NC(=O)C21CCS(=O)(=O)CC1,< 5%,,0%,,11%,5%,,75 nM,Papp A→B [21]: 4 ×10⁻⁶ cm/s; Papp B→A [22]: 25 ×10⁻⁶ cm/s
Cc1ccc(C(=O)NC2CC2)cc1-c1ccc2c(c1)NC(=O)[C@]21CC[C@@H](O)CC1,< 5%,permeable,2%,permeable,81%,65%,1.4 nM,5 nM,
Cc1ccc(C(=O)NC2CC2)cc1-c1ccc2c(c1)NC(=O)[C@]21CC[C@H](O)CC1,7%,permeable,15%,permeable,61%,40%,1.4 nM,11 nM,
Cc1ccc(C(=O)NC2CC2)cc1-c1ccc2c(c1)NC(=O)C21CCC(F)(F)CC1,< 5%,permeable,< 5%,permeable,< 5%,< 5%,,10 nM,AUC(0-inf) [12]: 5020 ng·h/mL; MRT [1]: 21 h; half-life [14]: 14.4 h; IC50 (CHO): 7000 nM; Vd [16]: 4.2 L/kg; clearance [17]: 3.33 mL/min/kg; Cmax [18]: 436 ng/mL
Cc1ccc(C(=O)Nc2ccon2)cc1-c1ccc2c(c1)NC(=O)C21CCC(F)(F)CC1,< 5%,permeable,14%,permeable,17%,17%,0.9 nM,4.9 nM,
Cc1ncc(C(=O)NC2CC2)cc1-c1ccc2c(c1)NC(=O)C21CCCC1,< 5%,permeable,30%,permeable,11%,29%,7.4 nM,150 nM,cytotoxicity at 200 µM [19]: 68%
Cc1ccc(C(=O)NC2CC2)cc1-c1ccc2c(n1)NC(=O)C21CCCC1,11%,permeable,33%,permeable,16%,19%,,128 nM,IC50 (CHO): 58000 nM
Cc1ccc(C(=O)NC2CC2)cc1-c1cc2c(cn1)C1(CCCC1)C(=O)N2,< 5%,permeable,21%,permeable,< 5%,10%,,64 nM,cytotoxicity at 200 µM [19]: 29%
Cc1ccc(C(=O)NC2CC2)cc1-c1cnc2c(c1)NC(=O)C21CCCC1,< 5%,permeable,16%,permeable,10%,19%,1.8 nM,69 nM,IC50 [20]: 105 nM; cytotoxicity at 200 µM [19]: 62%
Cc1ccc(C(=O)NC2CC2)cc1-c1cnc2c(c1)NC(=O)C21CCOCC1,5%,permeable,0%,permeable,16%,8%,,86 nM,cytotoxicity at 200 µM [19]: 36%
Cc1ccc(C(=O)NC2CC2)cc1-c1cnc2c(c1)NC(=O)C21CCC(F)(F)CC1,< 5%,permeable,19%,permeable,< 5%,1%,2.3 nM,188 nM,IC50 (CHO): 49000 nM
Cc1ccc(C(=O)NC2CC2)cc1-c1cnc2c(c1)NC(=O)C2(C)C,< 5%,permeable,2%,permeable,7%,8%,,544 nM,
Cc1ccc(C(=O)NC2CC2)cc1-c1ncc2c(n1)NC(=O)C21CCCC1,,permeable,,permeable,,,,1100 nM,
Cc1ccc(C(=O)NC2CC2)cc1-c1cnc2c(c1)NC(=O)C21CCCC1.Cl,,,,,,,,,bioavailability [11]: 65%; AUC(0-inf) [12]: 1850 ng·h/mL; MRT [1]: 2.2 h; half-life [14]: 3.9 h; Cmax [15]: 4620 ng/mL; Vd [16]: 1.2 L/kg; clearance [17]: 10 mL/min/kg; Cmax [18]: 1240 ng/mL; AUC(0-inf) [7]: 12000 ng·h/mL

# From ChEMBL document CHEMBL1821672, “Indolin-2-one p38α inhibitors II: Lead optimisation” (Bioorg Med Chem Lett, 2011)
